According to publication PMC11200219 (JACS Au, 2024):

Legend:
[1] = target: T1, bovine pancreatic DNase I (Bos taurus, UniProt P00639); settings: cited from earlier work
[2] = target: T1, bovine pancreatic DNase I; assay: DNase I assay; assay type: biochemical; settings: in the absence of Mn007
[3] = stated in the introduction without reference; cited from earlier work

T1 sequence (P00639 23-282): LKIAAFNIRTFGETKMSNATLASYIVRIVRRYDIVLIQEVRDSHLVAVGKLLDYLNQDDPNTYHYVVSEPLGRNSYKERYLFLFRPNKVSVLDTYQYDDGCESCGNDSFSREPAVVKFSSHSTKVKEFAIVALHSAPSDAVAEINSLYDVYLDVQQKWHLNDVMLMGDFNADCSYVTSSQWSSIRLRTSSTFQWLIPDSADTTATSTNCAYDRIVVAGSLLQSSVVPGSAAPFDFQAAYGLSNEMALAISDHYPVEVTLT

| Effect on activity of DNase I [2] | Molecule | Inhibition of bovine pancreatic DNase I (reported) [1] | Cytotoxicity [3] |
| --- | --- | --- | --- |
| – | O=C(O)CN(CCN(CC(=O)O)CC(=O)O)CC(=O)O [EDTA] | reported to inhibit | – |
| did not affect the activity of DNase I | CC(O)COC[C@H]1O[C@@H]2O[C@H]3[C@H](O)[C@@H](O)[C@@H](O[C@H]4[C@H](O)[C@@H](O)[C@@H](O[C@H]5[C@H](O)[C@@H](O)[C@@H](O[C@H]6[C@H](O)[C@@H](O)[C@@H](O[C@H]7[C@H](O)[C@@H](O)[C@@H](O[C@H]8[C@H](O)[C@@H](O)[C@@H](O[C@H]1[C@H](O)[C@H]2O)O[C@@H]8COCC(C)O)O[C@@H]7COCC(C)O)O[C@@H]6COCC(C)O)O[C@@H]5COCC(C)O)O[C@@H]4COCC(C)O)O[C@@H]3COCC(C)O (stereo partly drawn) [HyβCD, 2-Hydroxypropyl-β-cyclodextrin] | – | – |
| – | CN(C)c1ccc(C(=C2C=CC(=[N+](C)C)C=C2)c2ccc(N(C)C)cc2)cc1 [crystal violet] | reported to inhibit | show cytotoxicity |
| – | actin | reported to inhibit | – |
